Laboratory results taken from PMC4209782 (Biochemical Journal, 2014).
Where two headings read alike, the source gives them in different places.

Tests used:
Format in all cases: binding
[1] = molecular target: T1, 3×FLAG–SGK3-(1–162) PX domain wild-type (Homo sapiens, UniProt Q96BR1); assay: ITC, wild-type SGK3 PX domain; conditions: 30°C
T1 construct: reaction chamber containing wild-type 3×FLAG–SGK3-(1–162) PX domain; host or cells: E. coli BL21-CodonPlus (DE3)-RIL (from general methods, not tied expressly to this protein)
T1 sequence (Q96BR1 1-162): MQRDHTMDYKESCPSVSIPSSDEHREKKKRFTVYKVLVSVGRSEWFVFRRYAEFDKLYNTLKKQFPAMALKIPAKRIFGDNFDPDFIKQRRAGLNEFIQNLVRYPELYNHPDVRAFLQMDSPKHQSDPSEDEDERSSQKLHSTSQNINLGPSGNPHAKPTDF
Experimental: (§1) ITC experiments were carried out on a Microcal VP-ITC. A series of injections of peptide were made into an isolated chamber containing the protein at a constant temperature of 30°C. Heat changes within the cell were monitored during each injection of peptide and recorded as the total heat change per second over time. A binding isotherm was then fitted to data and expressed as the heat change per mol of peptide against the peptide/protein ratio. Injectant was PtdIns and PtdIns(3)P (Echelon) dissolved in buffer (50 mM Hepes, pH 7.4, and 150 mM NaCl). […] Data were analysed using Origin 7.0 with the Microcal software patch installed. […]
(§2) Figure 5 SGK3 binds to PtdIns(3)P via its PX domain (A) ITC was performed by gradually titrating 0.5 mM PtdIns(3)P into the reaction chamber containing wild-type 3×FLAG–SGK3-(1–162) PX domain (left panel) or mutant 3×FLAG–SGK3-(1–162) R50A PX domain (middle panel) and 3×FLAG–SGK3-(1–162) R90A PX domain (right panel). […] Kd were calculated using Origin 7.0 with ITC data analysis disc program. (B) The ability of the indicated GST fusion proteins to bind various phosphoinositides was analysed. […] The membranes were washed and the PX domain protein bound to the membrane by virtue of its interaction with lipid was detected using by using HRP-conjugated anti-FLAG antibodies (SGK3 PX domain) or anti-GST (PH domains).

[2] = test system: T2, 3×FLAG–SGK3-(1–162) R90A PX domain; assay: ITC, SGK3 PX domain R90A
T2 construct: 3×FLAG–SGK3-(1–162) R90A PX domain (right panel); host or cells: E. coli BL21-CodonPlus (DE3)-RIL (from general methods, not tied expressly to this protein)
Experimental: as §1, §2

[3] = test system: T3, 3×FLAG–SGK3-(1–162) R50A PX domain; assay: ITC, SGK3 PX domain R50A
T3 construct: mutant 3×FLAG–SGK3-(1–162) R50A PX domain (middle panel); host or cells: E. coli BL21-CodonPlus (DE3)-RIL (from general methods, not tied expressly to this protein)
Experimental: as §1, §2

Kd ([1]; read-out: Kd1): 1.8 µM
Kd ([1]; read-out: Kd2): 5.2 µM
binding to PX domain with Arg90 to alanine mutation [2]: abolished binding
binding to PX domain with Arg50 to alanine mutation [3]: abolished binding
Substance: PtdIns(3)P
